Source: patent US20140271734A1, “BILE ACID RECYCLING INHIBITORS FOR TREATMENT OF BARRETT'S ESOPHAGUS AND GASTROESOPHAGEAL REFLUX DISEASE” (LUMENA PHARMACEUTICALS, INC., priority 2013, published 2014)
Where two headings read alike, the source gives them in different places.

How the values were obtained:
[1] = Toxicokinetics of LUM001 free form, 13-week oral capsule toxicity study in dogs; format: in vivo, Beagle dogs; set-up: AUC/Dose / Cmax/Dose: unit not given here; conditions: for Cmax / Tmax / AUC(0-t): Beagle, dog, plasma, oral; for AUC(0-t): read-out: AUC(0-24 h), mean
Method: Six- to seven-month old Beagle dogs of body weights of 4.9-9.5 kg (4/sex/group) orally via capsules at 0, 5, 20 or 100 mg/kg for 13 consecutive weeks. Plasma levels of LUM001 (free form) were evaluated on Days 1 and 91. LUM001 was administered by once daily oral gelatin capsules. […] therefore, 105% of a stated dose is given to provide the appropriate amount of compound for dosing. On study Day 1 and Day 91, approximately 2 mL of venous blood was collected in heparinized tubes from the cephalic vein of each animal at 1, 2, 3, 5, 8, and 24 hours post-dose. Blood collection tubes were mixed and placed on ice during the collection period after which they were centrifuged and the plasma was harvested into cryotubes within approximately 60 minutes of blood collection. Plasma samples were stored at approximately −70° C. or lower until analyzed.
The concentration of LUM001 free form in plasma were determined using an LCMSMS method. The assay sensitivity was 5.00 ng/mL for a […] sample.

total serum bile acids = assay: Plasma total serum bile acids in ZDF rats, week 3; format: in vivo; conditions: twice daily oral gavage
[2] = both sexes, 5 mg/kg, Day 1, 5 mg/kg, Comb
[3] = both sexes, 5 mg/kg, Day 91, 5 mg/kg, Comb
[4] = both sexes, 20 mg/kg, Day 1, 20 mg/kg, Comb
[5] = both sexes, 20 mg/kg, Day 91, 20 mg/kg, Comb
[6] = both sexes, 100 mg/kg, Day 1, 100 mg/kg, Comb
[7] = both sexes, 100 mg/kg, Day 91, 100 mg/kg, Comb
[8] = female, 5 mg/kg, Day 1, 5 mg/kg, F
[9] = female, 20 mg/kg, Day 1, 20 mg/kg, F
[10] = female, 20 mg/kg, Day 91, 20 mg/kg, F
[11] = female, 100 mg/kg, Day 1, 100 mg/kg, F
[12] = female, 100 mg/kg, Day 91, 100 mg/kg, F
[13] = male, 5 mg/kg, Day 1, 5 mg/kg, M
[14] = male, 5 mg/kg, Day 91, 5 mg/kg, M
[15] = male, 20 mg/kg, Day 1, 20 mg/kg, M
[16] = male, 20 mg/kg, Day 91, 20 mg/kg, M
[17] = male, 100 mg/kg, Day 1, 100 mg/kg, M
[18] = male, 100 mg/kg, Day 91, 100 mg/kg, M

SMILES: CCCCC1(CCCC)CS(=O)(=O)c2ccc(N(C)C)cc2[C@@H](c2ccc(OCc3ccc(C[N+]45CCN(CC4)CC5)cc3)cc2)[C@H]1O [LUM001]
- AUC/Dose ([1]; Day 1, 5 mg/kg, Comb): 3.55
- BA ([1]; Day 1, 5 mg/kg, Comb): 0.1%
- Cmax/Dose ([1]; Day 1, 5 mg/kg, Comb): 1.81
- AUC/Dose ([1]; Day 1, 5 mg/kg, F): 4.17
- BA ([1]; Day 1, 5 mg/kg, F): <0.1%
- Cmax/Dose ([1]; Day 1, 5 mg/kg, F): 1.87
- AUC/Dose ([1]; Day 1, 5 mg/kg, M): 2.92
- BA ([1]; Day 1, 5 mg/kg, M): <0.1%
- Cmax/Dose ([1]; Day 1, 5 mg/kg, M): 1.76
- AUC/Dose ([1]; Day 1, 20 mg/kg, Comb): 3.63
- BA ([1]; Day 1, 20 mg/kg, Comb): 0.1%
- Cmax/Dose ([1]; Day 1, 20 mg/kg, Comb): 1.25
- AUC/Dose ([1]; Day 1, 20 mg/kg, F): 2.43
- BA ([1]; Day 1, 20 mg/kg, F): <0.1%
- Cmax/Dose ([1]; Day 1, 20 mg/kg, F): 1.27
- AUC/Dose ([1]; Day 1, 20 mg/kg, M): 4.84
- BA ([1]; Day 1, 20 mg/kg, M): <0.1%
- Cmax/Dose ([1]; Day 1, 20 mg/kg, M): 1.24
- AUC/Dose ([1]; Day 1, 100 mg/kg, Comb): 2.39
- BA ([1]; Day 1, 100 mg/kg, Comb): <0.1%
- Cmax/Dose ([1]; Day 1, 100 mg/kg, Comb): 0.907
- AUC/Dose ([1]; Day 1, 100 mg/kg, F): 3.44
- BA ([1]; Day 1, 100 mg/kg, F): <0.1%
- Cmax/Dose ([1]; Day 1, 100 mg/kg, F): 1.17
- AUC/Dose ([1]; Day 1, 100 mg/kg, M): 1.34
- BA ([1]; Day 1, 100 mg/kg, M): <0.1%
- Cmax/Dose ([1]; Day 1, 100 mg/kg, M): 0.648
- AUC/Dose ([1]; Day 91, 5 mg/kg, Comb): 0.350
- BA ([1]; Day 91, 5 mg/kg, Comb): <0.1%
- Cmax/Dose ([1]; Day 91, 5 mg/kg, Comb): 0.350
- AUC/Dose ([1]; Day 91, 5 mg/kg, F): 0.00
- BA ([1]; Day 91, 5 mg/kg, F): <0.1%
- Cmax/Dose ([1]; Day 91, 5 mg/kg, F): 0.00
- AUC/Dose ([1]; Day 91, 5 mg/kg, M): 0.700
- BA ([1]; Day 91, 5 mg/kg, M): <0.1%
- Cmax/Dose ([1]; Day 91, 5 mg/kg, M): 0.700
- AUC/Dose ([1]; Day 91, 20 mg/kg, Comb): 2.54
- BA ([1]; Day 91, 20 mg/kg, Comb): 0.1%
- Cmax/Dose ([1]; Day 91, 20 mg/kg, Comb): 1.19
- AUC/Dose ([1]; Day 91, 20 mg/kg, F): 2.70
- BA ([1]; Day 91, 20 mg/kg, F): <0.1%
- Cmax/Dose ([1]; Day 91, 20 mg/kg, F): 1.25
- AUC/Dose ([1]; Day 91, 20 mg/kg, M): 2.38
- BA ([1]; Day 91, 20 mg/kg, M): <0.1%
- Cmax/Dose ([1]; Day 91, 20 mg/kg, M): 1.13
- AUC/Dose ([1]; Day 91, 100 mg/kg, Comb): 5.03
- BA ([1]; Day 91, 100 mg/kg, Comb): 0.2%
- Cmax/Dose ([1]; Day 91, 100 mg/kg, Comb): 1.40
- AUC/Dose ([1]; Day 91, 100 mg/kg, F): 6.01
- BA ([1]; Day 91, 100 mg/kg, F): <0.1%
- Cmax/Dose ([1]; Day 91, 100 mg/kg, F): 1.82
- AUC/Dose ([1]; Day 91, 100 mg/kg, M): 4.05
- BA ([1]; Day 91, 100 mg/kg, M): <0.1%
- Cmax/Dose ([1]; Day 91, 100 mg/kg, M): 0.974
- Cmax [1, 2]: 9.07 ng/mL
- Tmax [1, 2]: 1.5 h
- AUC(0-t) [1, 2]: 17.7 ng·h/mL
- Cmax [1, 3]: 1.75 ng/mL
- Tmax [1, 3]: 0.375 h
- AUC(0-t) [1, 3]: 1.75 ng·h/mL
- Cmax [1, 4]: 25.1 ng/mL
- Tmax [1, 4]: 2.13 h
- AUC(0-t) [1, 4]: 72.6 ng·h/mL
- Cmax [1, 5]: 23.8 ng/mL
- Tmax [1, 5]: 1.88 h
- AUC(0-t) [1, 5]: 50.8 ng·h/mL
- Cmax [1, 6]: 90.7 ng/mL
- Tmax [1, 6]: 1.38 h
- AUC(0-t) [1, 6]: 239 ng·h/mL
- Cmax [1, 7]: 140 ng/mL
- Tmax [1, 7]: 2 h
- AUC(0-t) [1, 7]: 503 ng·h/mL
- Cmax [1, 8]: 9.34 ng/mL
- Tmax [1, 8]: 1.25 h
- AUC(0-t) [1, 8]: 20.9 ng·h/mL
- Tmax ([1]; female, 5 mg/kg, Day 91, 5 mg/kg, F): 0 h
- Cmax [1, 9]: 25.3 ng/mL
- Tmax [1, 9]: 2 h
- AUC(0-t) [1, 9]: 48.5 ng·h/mL
- Cmax [1, 10]: 25 ng/mL
- Tmax [1, 10]: 2 h
- AUC(0-t) [1, 10]: 53.9 ng·h/mL
- Cmax [1, 11]: 117 ng/mL
- Tmax [1, 11]: 1.5 h
- AUC(0-t) [1, 11]: 344 ng·h/mL
- Cmax [1, 12]: 182 ng/mL
- Tmax [1, 12]: 1.75 h
- AUC(0-t) [1, 12]: 601 ng·h/mL
- Cmax [1, 13]: 8.79 ng/mL
- Tmax [1, 13]: 1.75 h
- AUC(0-t) [1, 13]: 14.6 ng·h/mL
- Cmax [1, 14]: 3.5 ng/mL
- Tmax [1, 14]: 0.75 h
- AUC(0-t) [1, 14]: 3.5 ng·h/mL
- Cmax [1, 15]: 24.8 ng/mL
- Tmax [1, 15]: 2.25 h
- AUC(0-t) [1, 15]: 96.7 ng·h/mL
- Cmax [1, 16]: 22.6 ng/mL
- Tmax [1, 16]: 1.75 h
- AUC(0-t) [1, 16]: 47.6 ng·h/mL
- Cmax [1, 17]: 64.8 ng/mL
- Tmax [1, 17]: 1.25 h
- AUC(0-t) [1, 17]: 134 ng·h/mL
- Cmax [1, 18]: 97.4 ng/mL
- Tmax [1, 18]: 2.25 h
- AUC(0-t) [1, 18]: 405 ng·h/mL

SMILES: CCCC[C@]1(CC)CS(=O)(=O)c2ccc(N(C)C)cc2[C@@H](c2cccc(NC(=O)N[C@@H]3O[C@H](COS(=O)(=O)[O-])[C@@H](O)[C@H](OCc4ccccc4)[C@H]3O)c2)[C@H]1O.CCO.O.[K+] [LUM002, potassium((2R,3R,4S,5R,6R)-4-benzyloxy-6-{3-[3-((3S,4R,5R)-3-butyl-7-dimethylamino-3-ethyl-4-hydroxy-1,1-dioxo-2,3,4,5-tetrahydro-1H-benzo[b]thiepin-5-yl)-phenyl]-ureido}-3,5-dihydroxy-tetrahydro-pyran-2-ylmethyl)sulphate ethanolate, hydrate]
- Plasma total serum bile acids (SBA) (total serum bile acids): statistically significant reductions in SBA
